In US20090306116A1, “PYRIMIDINE DERIVATIVES FOR THE INHIBITION OF IGF-IR TYROSINE KINASE ACTIVITY” (AstraZeneca AB, priority 2005, published 2009):

Test system: murine fibroblasts (NIH3T3) over-expressing human IGF-1 receptor
Test: Inhibition of IGF-stimulated cell proliferation (BrdU incorporation), Test (c)
Type: cell-based
Conditions: inhibition of IGF-stimulated proliferation in NIH3T3 over-expressing human IGF-1 receptor
Method: The construction of murine fibroblasts (NIH3T3) over-expressing human IGF-1 receptor has been described by Lammers et al (EMBO J, 8, 1369-1375, 1989). These cells show a proliferative response to IGF-I which can be measured by BrdU incorporation into newly synthesised DNA. Compound potency was determined as causing inhibition of the IGF-stimulated proliferation in the following assay:
Cell Proliferation ELISA, BrdU (calorimetric) [Boehringer Mannheim (Diagnostics and Biochemicals) Ltd, UK. Cat no. 1 647 229].
DMEM, FCS, Glutamine, HBSS (all from Life Technologies Ltd., UK).
Human recombinant IGF-1 Animal/media grade (GroPep Limited ABN 78 008 176 298, Australia. Cat No. IU 100).
100 μg of lyophilised IGF was reconstituted in 100 ul of 10 mM HCl. Add 400 μl of 1 mg/ml BSA in PBS 25 μl aliquots @ 200 μg/ml IGF-1
10 μl of stock IGF+12.5 ml growth medium to give 8× stock of 160 ng/ml.
DMEM, 10% FCS, 2 mM glutamine.
DMEM, 1% charcoal/dextran stripped FCS, 2 mM glutamine.
Compounds are initially dissolved in DMSO to 10 mM, followed by dilutions in DMEM+1% FCS+glutamine to give a range from […] in 1-0.00045% DMSO final concentration in assay well. […]
The incorporation of BrdU in the cells (after a 4 h incorporation period) was assessed using the BrdU Cell Proliferation Elisa according to the manufacturer's protocol. […]

Structure (SMILES)	IC50
Cc1cc(Nc2nccs2)nc(N2CCC[C@H]2c2cc(-c3ccccn3)no2)n1 [Example 1, S-6-Methyl-4-(2-thiazolylamino)-2-{2-[3-(pyrid-2-yl)isoxazol-5-yl]pyrrolidin-1-yl}pyrimidine]	0.17 µM
Cc1cc(Nc2ncc[nH]2)nc(N2CCC[C@H]2c2cc(-c3ccccn3)no2)n1 [Example 23, S-6-Methyl-4-(imidazol-2-ylamino)-2-{2-[3-(pyridin-2-yl)isoxazol-5-yl]pyrrolidin-1-yl}pyrimidine]	0.45 µM
